According to US12485419B2, “Sorting biological and non-biological moieties using magnetic levitation” (The Board of Trustees of the Leland Stanford Junior …, priority 2015, dated 2025):

Key:
3T3 cells = assay: Effects of Gd concentration and levitation on cell viability (live/dead assay of spheroids); assay type: cell-based; settings: 48 hours exposure to 0, 25, 50, 100 mM Gd^+; magnetic levitation (LEV) and hanging drop (HD); FIG. 30
Description: Referring now to FIG. 30, the effects of Gd concentration and levitation on cell viability are illustrated. 3T3 cells were exposed for 48 hours to different concentration of Gd^+ (0, 25, 50, 100 mM) during magnetic levitation (LEV) and hanging drop (HD). Spheroid viability was then assessed with live/dead assay (calcein/ethidium homodimer^−1). […] The white scale bar is 100 μm.

red blood cells = tested on: red blood cells
Description: The levitation of red blood cells (RBC) was as follows. Blood samples from healthy donors were received from Stanford University Blood Center. Whole blood was diluted at varying ratios in PBS containing 30 mM Gd^+. Concentrations were described in the results. Concentrations of 450 and 90 million cells/mL of blood were used to measure blood stabilization time. Varying concentrations of blood, ranging from 250 to 0.8 million cells/mL were used to correlate the width of the blood band and cell concentrations.
Referring now to FIGS. 7A-7D, the effect of drugs was monitored using the levitation device. […] FIG. 7D illustrates the actual images that were analyzed to produce the plots of FIGS. 7B and 7C. In FIG. 7D, a certain density beads was added each time for calibration experiments.
Images were taken over time in 60 minutes. […] FIG. 6B is then a graph showing the area analysis. Area of the blood were measured using an image) script developed in the lab. […] Looking at FIG. 6C, the levitation height is measured using same script. Height is directly correlated with density of cells.

Row | Compound | spheroid viability (calcein/ethidium homodimer live/dead assay) (3T3 cells) | levitation height of red blood cells (red blood cells; 75 mg/mL chloroquine spiked into red blood cells, with increasing time of exposure, FIG. 7A) | levitation height of blood sample in capillary channel (red blood cells; chloroquine at 7.5 mg/mL and 75 mg/mL, Sample-1, Sample-2, Sample-3, especially after the high dosage, FIG. 8) | density of blood (from levitation height) (red blood cells; i-LEV, higher drug concentration, within 50 minutes, FIG. 6C)
1 | O=C([O-])CN1CCN(CC(=O)[O-])CCN([C@H](CO)[C@H](O)CO)CCN(CC(=O)[O-])CC1.[Gd+3] [Gd^+] | majority of the cells in the aggregates are alive |  |  | 
2 | CCN(CC)CCCC(C)Nc1ccnc2cc(Cl)ccc12 (stereo not shown) [chloroquine] |  | decreases | levels out at a very low height | higher density
